Data: patent publication US11780845B2 (Relay Therapeutics, Inc., priority 2019, dated 2023)

target: FGFR2 (Homo sapiens (Human), UniProt P21802); test: Biochemical FGFR2 Caliper assay; conditions: not given
Sequence (P21802 22-821): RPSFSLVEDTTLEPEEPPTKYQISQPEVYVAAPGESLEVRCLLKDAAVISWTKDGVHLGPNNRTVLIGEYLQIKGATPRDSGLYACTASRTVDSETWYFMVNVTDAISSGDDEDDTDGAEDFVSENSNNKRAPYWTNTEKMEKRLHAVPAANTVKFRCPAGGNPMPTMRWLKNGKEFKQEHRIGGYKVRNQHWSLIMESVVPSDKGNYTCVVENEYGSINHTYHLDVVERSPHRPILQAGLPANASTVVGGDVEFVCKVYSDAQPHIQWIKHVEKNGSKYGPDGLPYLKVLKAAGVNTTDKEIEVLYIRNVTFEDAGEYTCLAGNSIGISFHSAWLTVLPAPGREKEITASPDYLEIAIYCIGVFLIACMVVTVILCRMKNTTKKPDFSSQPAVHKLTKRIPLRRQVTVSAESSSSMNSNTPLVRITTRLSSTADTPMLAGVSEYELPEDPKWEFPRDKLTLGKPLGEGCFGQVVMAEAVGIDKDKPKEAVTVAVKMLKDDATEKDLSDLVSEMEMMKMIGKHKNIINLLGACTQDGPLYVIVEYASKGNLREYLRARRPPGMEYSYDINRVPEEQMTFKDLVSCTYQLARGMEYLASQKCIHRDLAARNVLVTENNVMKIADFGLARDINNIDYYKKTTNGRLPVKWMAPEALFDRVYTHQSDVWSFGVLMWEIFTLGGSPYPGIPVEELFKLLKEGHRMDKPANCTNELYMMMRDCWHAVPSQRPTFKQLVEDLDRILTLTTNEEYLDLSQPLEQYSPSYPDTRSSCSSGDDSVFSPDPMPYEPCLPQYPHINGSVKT

IC50 [nM]	SMILES
100 to 250	Cc1ccnc(Oc2ccc(-c3c(-c4ccc(NC(=O)CCl)cc4)n(C)c4ncnc(N)c34)cc2)n1 [Example 897]
100 to 250	C=C(C)C(=O)Nc1ccc(-c2c(-c3ccc4c(c3)CO[C@H]4c3cccc(C)n3)c3c(N)ncnc3n2C)cc1 (single isomer, unassigned) [Example 896]
100 to 250	C=C(C)C(=O)Nc1ccc(-c2c(C3=CC[C@@H](C(=O)N4CCC[C@H]4C)CC3)c3c(N)ncnc3n2C)cc1 [Example 1008]
< 100	C=C(C)C(=O)Nc1cccc(-c2c(-c3ccc(C(=O)NCC4(F)COC4)cc3)c3c(N)ncnc3n2C)c1 [Example 1021]
100 to 250	Cn1c(-c2ccc(NC(=O)CCl)cc2)c(C2=CC[C@H](C(=O)N3CCCC3)CC2)c2c(N)ncnc21 (single isomer, unassigned) [Example 905]
1000 to 100000	C=C(C)C(=O)Nc1ccc(-c2c(-c3ccc4ccncc4c3)c3c(N)ncnc3n2C)cc1 [Example 1272]
250 to 1000	CC1=C[C@@H](C)N(c2ccc(-c3c(-c4ccc(Oc5nccc(C)n5)cc4)c4c(N)ncnc4n3C)cc2)C1=O [Example 1114]
250 to 1000	C#Cc1cc(C)c(-c2c(-c3ccc(Oc4nccc(C)n4)c(F)c3)c3c(CO)ncnc3n2C)cn1 [Example 1479]
1000 to 100000	Cn1c([C@H]2CCN(C#N)C2)c(-c2ccc(C(=O)N3CCCC3)cc2)c2c(N)ncnc21 (single isomer, unassigned) [Example 861]
< 100	C=C(C)C(=O)Nc1ccc(-c2c(C3=CC[C@H](C(=O)N4CCC[C@@H]4C)CC3)c3c(N)ncnc3n2C)cc1 [Example 991]
100 to 250	C#Cc1ncc(-c2c(-c3ccc(Oc4nccc(C)n4)c(F)c3)c3c(C)ncnc3n2C)cc1OC [Example 1381]
< 100	C=CC(=O)Nc1ccc(-c2c(-c3cc[nH]c3)c3c(N)ncnc3n2C)cc1 [Example 1154]
1000 to 100000	C=C(C)C(=O)Nc1ccc(-c2c(N3CC[C@H](C(=O)N4CCCC4)CC3=O)c3c(N)ncnc3n2C)cc1 (single isomer, unassigned) [Example 926]

More lines, now with the values behind:

SMILES	IC50 [nM]
C=C(C)C(=O)Nc1ccc(-c2c(-c3ccc(Oc4cccc(C)n4)cc3)c3ncncc3n2C)cc1 [Example 820]	< 100
C#Cc1cc(C)c(-c2c(C3=CC[C@H](C(=O)N4CCC[C@H]4C#N)CC3)c3c(N)ncnc3n2C)c(C)n1 (atropisomer, axis not shown) [Example 1469]	< 100
C#Cc1nc2cc(-c3c(-c4ccc(Oc5nccc(C)n5)c(F)c4)c4c(N)ncnc4n3C)c(OC)cc2n1C [Example 1426]	< 100
C=CC(=O)NC1CCC(c2c(-c3ccc(Oc4cccc(C)n4)cc3)c3c(N)ncnc3n2C)C1 (centres unmarked) [Example 810]	< 100
C#Cc1cnc2ccc(-c3c(-c4ccc(Oc5nccc(C)n5)c(F)c4)c4c(N)ncnc4n3C)cc2n1 [Example 1384]	< 100
COCC#Cc1cc(C)c(-c2c(-c3ccc(Oc4nccc(C)n4)cc3)c3c(N)ncnc3n2C)cn1 [Example 1386]	< 100
C=C(C)C(=O)Nc1ccc(-c2c(C3=CC[C@@]4(CC3)CCN(C)C4=O)c3c(N)ncnc3n2C)cc1 (single isomer, unassigned) [Example 935]	1000 to 100000
C#Cc1ncc(-c2c(-c3ccc(Oc4nccc(C)n4)cn3)c3c(N)ncnc3n2C)c(C)c1F [Example 1328]	< 100
C=C(C)C(=O)Nc1ccc(-c2c(-c3cnc(-c4ccccc4C)s3)c3c(N)ncnc3n2C)cc1 [Example 1422]	250 to 1000
COCC#Cc1cc(C)c(-c2c(C3=CC[C@H](C(=O)N4CCC[C@H]4C)CC3)c3c(N)ncnc3n2C)cn1 [Example 1382]	< 100
C=C(C)C(=O)Nc1cc(-c2c(-c3ccc(Oc4nccc(C)n4)c(F)c3)c3c(N)ncnc3n2C)n(C)n1 [Example 1161]	< 100
C=C(C)C(=O)Nc1ccc(-c2c(C3=CCC(C(=O)N4CCCC4)CC3(F)F)c3c(N)ncnc3n2C)cc1 (centres unmarked) [Example 969]	< 100
C#Cc1cc(OC)c(-c2c(C3=CC[C@H](C(=O)N4CCC[C@H]4C)CC3)c3c(N)ncnc3n2C)cn1 [Example 1355]	< 100
C#Cc1cc(C)c(-c2c(-c3ccc(Oc4nccc(C)n4)c(F)c3)c3c(N)ncnc3n2C(C)C)cn1 [Example 1213]	< 100
CC1=CCN(c2ccc(-c3c(-c4ccc(Oc5nccc(C)n5)cc4)c4c(N)ncnc4n3C)cc2)C1=O [Example 1061]	< 100

tested on: SNU-16; test: Cell SNU-16 assay; format: cell-based; conditions: Homo sapiens, SNU-16, SNU-16 cells

IC50 [nM]	SMILES
≤ 100	Cc1ccnc(Oc2ccc(-c3c(-c4ccc(NC(=O)CCl)cc4)n(C)c4ncnc(N)c34)cc2)n1 [Example 897]
250 to 1000	C=C(C)C(=O)Nc1ccc(-c2c(-c3ccc4c(c3)CO[C@H]4c3cccc(C)n3)c3c(N)ncnc3n2C)cc1 (single isomer, unassigned) [Example 896]
100 to 250	C=C(C)C(=O)Nc1ccc(-c2c(C3=CC[C@@H](C(=O)N4CCC[C@H]4C)CC3)c3c(N)ncnc3n2C)cc1 [Example 1008]
≤ 100	C=C(C)C(=O)Nc1cccc(-c2c(-c3ccc(C(=O)NCC4(F)COC4)cc3)c3c(N)ncnc3n2C)c1 [Example 1021]
≤ 100	Cn1c(-c2ccc(NC(=O)CCl)cc2)c(C2=CC[C@H](C(=O)N3CCCC3)CC2)c2c(N)ncnc21 (single isomer, unassigned) [Example 905]
1000 to 100000	C=C(C)C(=O)Nc1ccc(-c2c(-c3ccc4ccncc4c3)c3c(N)ncnc3n2C)cc1 [Example 1272]
≤ 100	CC1=C[C@@H](C)N(c2ccc(-c3c(-c4ccc(Oc5nccc(C)n5)cc4)c4c(N)ncnc4n3C)cc2)C1=O [Example 1114]
≤ 100	C#Cc1cc(C)c(-c2c(-c3ccc(Oc4nccc(C)n4)c(F)c3)c3c(CO)ncnc3n2C)cn1 [Example 1479]
1000 to 100000	Cn1c([C@H]2CCN(C#N)C2)c(-c2ccc(C(=O)N3CCCC3)cc2)c2c(N)ncnc21 (single isomer, unassigned) [Example 861]
≤ 100	C=C(C)C(=O)Nc1ccc(-c2c(C3=CC[C@H](C(=O)N4CCC[C@@H]4C)CC3)c3c(N)ncnc3n2C)cc1 [Example 991]
≤ 100	C#Cc1ncc(-c2c(-c3ccc(Oc4nccc(C)n4)c(F)c3)c3c(C)ncnc3n2C)cc1OC [Example 1381]
≤ 100	C=CC(=O)Nc1ccc(-c2c(-c3cc[nH]c3)c3c(N)ncnc3n2C)cc1 [Example 1154]
1000 to 100000	C=C(C)C(=O)Nc1ccc(-c2c(N3CC[C@H](C(=O)N4CCCC4)CC3=O)c3c(N)ncnc3n2C)cc1 (single isomer, unassigned) [Example 926]

Continued, compound first:

SMILES	IC50 [nM]
C=C(C)C(=O)Nc1ccc(-c2c(-c3ccc(Oc4cccc(C)n4)cc3)c3ncncc3n2C)cc1 [Example 820]	≤ 100
C#Cc1cc(C)c(-c2c(C3=CC[C@H](C(=O)N4CCC[C@H]4C#N)CC3)c3c(N)ncnc3n2C)c(C)n1 (atropisomer, axis not shown) [Example 1469]	≤ 100
C#Cc1nc2cc(-c3c(-c4ccc(Oc5nccc(C)n5)c(F)c4)c4c(N)ncnc4n3C)c(OC)cc2n1C [Example 1426]	≤ 100
C=CC(=O)NC1CCC(c2c(-c3ccc(Oc4cccc(C)n4)cc3)c3c(N)ncnc3n2C)C1 (centres unmarked) [Example 810]	≤ 100
C#Cc1cnc2ccc(-c3c(-c4ccc(Oc5nccc(C)n5)c(F)c4)c4c(N)ncnc4n3C)cc2n1 [Example 1384]	100 to 250
COCC#Cc1cc(C)c(-c2c(-c3ccc(Oc4nccc(C)n4)cc3)c3c(N)ncnc3n2C)cn1 [Example 1386]	≤ 100
C=C(C)C(=O)Nc1ccc(-c2c(C3=CC[C@@]4(CC3)CCN(C)C4=O)c3c(N)ncnc3n2C)cc1 (single isomer, unassigned) [Example 935]	1000 to 100000
C#Cc1ncc(-c2c(-c3ccc(Oc4nccc(C)n4)cn3)c3c(N)ncnc3n2C)c(C)c1F [Example 1328]	≤ 100
C=C(C)C(=O)Nc1ccc(-c2c(-c3cnc(-c4ccccc4C)s3)c3c(N)ncnc3n2C)cc1 [Example 1422]	250 to 1000
COCC#Cc1cc(C)c(-c2c(C3=CC[C@H](C(=O)N4CCC[C@H]4C)CC3)c3c(N)ncnc3n2C)cn1 [Example 1382]	≤ 100
C=C(C)C(=O)Nc1cc(-c2c(-c3ccc(Oc4nccc(C)n4)c(F)c3)c3c(N)ncnc3n2C)n(C)n1 [Example 1161]	≤ 100
C=C(C)C(=O)Nc1ccc(-c2c(C3=CCC(C(=O)N4CCCC4)CC3(F)F)c3c(N)ncnc3n2C)cc1 (centres unmarked) [Example 969]	≤ 100
C#Cc1cc(OC)c(-c2c(C3=CC[C@H](C(=O)N4CCC[C@H]4C)CC3)c3c(N)ncnc3n2C)cn1 [Example 1355]	≤ 100
C#Cc1cc(C)c(-c2c(-c3ccc(Oc4nccc(C)n4)c(F)c3)c3c(N)ncnc3n2C(C)C)cn1 [Example 1213]	≤ 100

same assay, conditions: SNU-16 cells

IC50 [nM]	SMILES
≤ 100	CC1=CCN(c2ccc(-c3c(-c4ccc(Oc5nccc(C)n5)cc4)c4c(N)ncnc4n3C)cc2)C1=O [Example 1061]
